For the experiment, the target named is T1, human histamine H3 receptor (Homo sapiens, UniProt Q9Y5N1).
T1 construct: host or cells: cells expressing the human H3 receptor
Briefly: H3 GTPγS assay (SPA method), histamine H3 in vitro assay. The class given is biochemical. To be noted: GTPγ[35S] SPA, membranes of cells expressing human H3 receptor; in one embodiment HCl salts tested; read-out: Potency (functional potency as indicated by IC50). Here is the method: H3 GTPγS assay (SPA method) was performed at EuroScreen (Belgium, ES-392-C) using conventional methods. Briefly, cells expressing the human histamine H3 receptor were homogenized in 15 mM Tris-HCl pH 7.5, 2 mM MgCl2, 0.3 mM EDTA, and 1 mM EGTA. Membranes were washed twice in the above tris buffer, collected by centrifugation (40,000×g, 25 min), and re-suspended in 75 mM Tris-HCl pH 7.5, 12.5 mM MgCl2, 0.3 mM EDTA, 1 mM EGTA, and 250 mM sucrose. Membranes were frozen in liquid nitrogen until use. On the day of the assay, membranes were thawed and diluted in assay buffer (20 mM HEPES pH 7.4, 100 mM NaCl, 10 μg/ml saponin, 1 mM MgCl2) to give 500 μg/ml and mixed (v/v) with GDP in assay buffer for a final GDP concentration of 10 μM and incubated on ice for at least 15 min. PVT-WGA beads (Amersham, RPNQ001) were diluted in assay buffer at 50 mg/mL and mixed with GTPγ[^35S] (Amersham, SJ1308) diluted in assay buffer to give ˜25,000 dpm/10 μL, and mixed vol/vol just before the start of the reaction. The reaction was started by adding 50 μL of test compound, 20 μL of the membranes:GDP mix, 10 μL of buffer, and 20 μL of the GTPγ[^35S]:beads mix in a 96 well plate Optiplate™ (PerkinElmer, 6005299) covered with topseal (TopCount™, PerkinElmer), mixed with an orbital shaker for 2 min, incubated for 1 hour at room temperature, centrifuged for 10 min at 2000 rpm, incubated for 1 h at room temperature, and counted for 1 min in a TopCount™ reader (PerkinElmer). Dose response curves and IC50 values (concentration to inhibit the reaction by 50%) were calculated by nonlinear regression using XLfit software (IDBS).
For antagonists testing, 10 μL of a reference agonist (R-γ-Me-Histamine) instead of 10 μL buffer was added at a concentration corresponding to the EC80 (30 nM). Control ligands were R-γ-Me-Histamine (Tocris, 0569), Imetit (Sigma, I-135), Thioperamide (Tocris, 0644), and Clobenpropit (Tocris, 0754) diluted in assay buffer.
The compounds provided herein were tested in the histamine H3 in vitro assay. In one embodiment, the respective HCl salts of the compounds provided herein were prepared using standard chemical procedures and tested in the histamine H3 in vitro assay.

T1 sequence (Q9Y5N1 whole entry): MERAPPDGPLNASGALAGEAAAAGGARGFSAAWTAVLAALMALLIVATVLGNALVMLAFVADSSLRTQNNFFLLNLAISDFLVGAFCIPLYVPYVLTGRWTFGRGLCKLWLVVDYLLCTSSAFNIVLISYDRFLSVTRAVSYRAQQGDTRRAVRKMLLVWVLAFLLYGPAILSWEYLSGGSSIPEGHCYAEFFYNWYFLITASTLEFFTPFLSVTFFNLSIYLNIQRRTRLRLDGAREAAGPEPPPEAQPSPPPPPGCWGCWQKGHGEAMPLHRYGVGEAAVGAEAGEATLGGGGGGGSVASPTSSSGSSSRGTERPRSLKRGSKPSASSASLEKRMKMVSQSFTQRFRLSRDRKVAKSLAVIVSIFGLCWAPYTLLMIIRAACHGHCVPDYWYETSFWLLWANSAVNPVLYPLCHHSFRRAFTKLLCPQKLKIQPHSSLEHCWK

As a reminder, the IC50 is the midpoint of a concentration-inhibition curve. Turning to `c1cc2c(cc1-c1cn[nH]c1)CC1(CCN(C3CCC3)CC1)O2` [Compound 27, 1′-Cyclobutyl-5-(1H-pyrazol-4-yl)-3H-spiro[benzofuran-2,4′-piperidine]], the half-maximal inhibitory concentration (IC50) was no more than 100 nM. The value for `CN(C)Cc1ccc2c(c1)OC1(CCN(C3CCC3)CC1)C2` [Compound 43, 1-(1′-Cyclobutyl-3H-spiro[benzofuran-2,4′-piperidine]-6-yl)-N,N-dimethylmethanamine] was no more than 100 nM; that for `c1cc2c(cc1CN1CCOCC1)CC1(CCN3CCCCC3C1)O2` (centres unmarked) [Compound 78, 5-(Morpholinomethyl)-1′,3′,4′,6′,7′,8′,9′,9a′-octahydro-3H-spiro[benzofuran-2,2′-quinolizine]] was no more than 10 nM. For “4-(1′,2′,3′,5′,6′,7′,9′,9a′-Octahydro-3H-spiro[benzofuran-2,8′-pyrrolo[1,2-a]azepin]-5-yl)benzonitrile and 4-(1′,2′,3′,5′,6′,8′,9′,9a′-octahydro-3H-spiro[benzofuran-2,7′-pyrrolo[1,2-a]azepin]-5-yl)benzonitrile [95/95a]”, the half-maximal inhibitory concentration (IC50) is no more than 100 nM. Consider `Cn1cc2ccc(-c3ccc4c(c3)CC3(CCN(C5CCC5)CC3)O4)cc2n1` [Compound 66, 1′-Cyclobutyl-5-(2-methyl-2H-indazol-6-yl)-3H-spiro[benzofuran-2,4′-piperidine]], for which the IC50 was no more than 10 nM. The same measure for `c1ccc2c(c1)ncn2-c1ccc2c(c1)OC1(CCCN(C3CCC3)CC1)C2` (centres unmarked) [Compound 70, 6′-(1H-Benzo[d]imidazol-1-yl)-1-cyclobutyl-3′H-spiro[azepane-4,2′-benzofuran]]: no more than 10 nM. The value for `c1cc2c(cc1-c1ccc3nncn3c1)CC1(CCN(C3CCC3)CC1)O2` [Compound 63] was no more than 10 nM; that for `c1cc2c(cc1CN1CCOCC1)CC1(CCN3CCCCC3C1)O2` (centres unmarked) [Compound 79, 5-(Morpholinomethyl)-1′,3′,4′,6′,7′,8′,9′,9a′-octahydro-3H-spiro[benzofuran-2,2′-quinolizine]] was no more than 10 nM; that for `CN1CCN(c2ccc3c(c2)CC2(CCN(C4CCC4)CC2)O3)CC1` [Compound 33, 1′-Cyclobutyl-5-(4-methylpiperazin-1-yl)-3H-spiro[benzofuran-2,4′-piperidine]] was no more than 10 nM. As for `c1cc2nc(-c3ccc4c(c3)CC3(CCN(C5CCC5)CC3)O4)ccc2[nH]1` [Compound 56, 1′-Cyclobutyl-5-(1H-pyrrolo[3,2-b]pyridin-5-yl)-3H-spiro[benzofuran-2,4′-piperidine]], the IC50 is no more than 10 nM. With `CC(=O)Nc1ccc(-c2ccc3c(c2)CC2(CCN(C(C)C4CCC4)CC2)O3)cc1` (centres unmarked) [Compound 12, N-(4-(1′-(1-Cyclobutylethyl)-3H-spiro[benzofuran-2,4′-piperidine]-5-yl)phenyl)acetamide], the 50% inhibitory concentration (IC50) was no more than 10 nM.

`CC(C1CCC1)N1CCC2(CC1)Cc1cc(-c3ccc4[nH]ccc4c3)ccc1O2` (centres unmarked) [Compound 13, 1′-(1-Cyclobutylethyl)-5-(1H-indol-5-yl)-3H-spiro[benzofuran-2,4′-piperidine]]: the IC50 was no more than 100 nM. The same measure for “5-((3,4-Dihydroisoquinolin-2(1H)-yl)methyl)-1′,2′,3′,5′,6′,7′,9′,9a′-octahydro-3H-spiro[benzofuran-2,8′-pyrrolo[1,2-a]azepine] and 5-((3,4-dihydroisoquinolin-2(1H)-yl)methyl)-1′,2′,3′,5′,6′,8′,9′,9a′-octahydro-3H-spiro[benzofuran-2,7′-pyrrolo[1,2-a]azepine] [97/97a]”: no more than 10 nM. The value for `CC(C1CCC1)N1CCC2(CC1)Cc1cc(-c3ccc(CN)cc3)ccc1O2` (centres unmarked) [Compound 16, (4-(1′-(1-Cyclobutylethyl)-3H-spiro[benzofuran-2,4′-piperidine]-5-yl)phenyl)methanamine] was no more than 10 nM. The same measure for `NCc1ccc(-c2ccc3c(c2)CC2(CCN(C4CCC4)CC2)O3)cc1` [Compound 14, (4-(1′-Cyclobutyl-3H-spiro[benzofuran-2,4′-piperidine]-5-yl)phenyl)methanamine]: no more than 100 nM. `Clc1ccc2c(c1)OC1(CCCN(C3CCC3)CC1)C2` (centres unmarked) [Compound 67, 6′-Chloro-1-cyclobutyl-3′H-spiro[azepane-4,2′-benzofuran]]: the concentration for half-maximal inhibition (IC50) is no more than 1000 nM. The same measure for `c1cc2c(cc1-c1ccc3cncn3c1)CC1(CCN(C3CCC3)CC1)O2` [Compound 57, 1′-Cyclobutyl-5-(imidazo[1,5-a]pyridin-6-yl)-3H-spiro[benzofuran-2,4′-piperidine]]: no more than 10 nM; for `N#Cc1ccc(NCc2ccc3c(c2)CC2(CCN(C4CCC4)CC2)O3)cc1` [Compound 42, 4-((1′-Cyclobutyl-3H-spiro[benzofuran-2,4′-piperidine]-5-yl)methylamino)benzonitrile]: no more than 100 nM. In the case of `c1ccc2c(c1)CCN(Cc1ccc3c(c1)CC1(CCN4CCCCC4C1)O3)C2` (centres unmarked) [Compound 81, 5-((3,4-Dihydroisoquinolin-2(1H)-yl)methyl)-1′,3′,4′,6′,7′,8′,9′,9a′-octahydro-3H-spiro[benzofuran-2,2′-quinolizine]], the IC50 was no more than 10 nM. The same measure for `c1cn2cc(-c3ccc4c(c3)CC3(CCC5CCCCN5CC3)O4)ccc2n1` (centres unmarked) [Compound 83, 5-(Imidazo[1,2-a]pyridin-6-yl)-2′,3′,4′,6′,7′,9′,10′,10a′-octahydro-1′H,3H-spiro[benzofuran-2,8′-pyrido[1,2-a]azepine]]: no more than 100 nM; for `CC(C1CCC1)N1CCC2(CC1)Cc1cc(Br)ccc1O2` (centres unmarked) [Compound 25, 5-Bromo-1′-(1-cyclobutylethyl)-3H-spiro[benzofuran-2,4′-piperidine]]: no more than 1000 nM. The same measure for `c1cc2c(cc1N1CCCCC1)CC1(CCN(C3CCC3)CC1)O2` [Compound 34, 1′-Cyclobutyl-5-(piperidin-1-yl)-3H-spiro[benzofuran-2,4′-piperidine]]: no more than 100 nM; for `c1ccc2c(c1)CCN(Cc1ccc3c(c1)CC1(CCN4CCCCC4C1)O3)C2` (centres unmarked) [Compound 80, 5-((3,4-Dihydroisoquinolin-2(1H)-yl)methyl)-1′,3′,4′,6′,7′,8′,9′,9a′-octahydro-3H-spiro[benzofuran-2,2′-quinolizine]]: no more than 10 nM. The value for `c1ccc2c(c1)ncn2-c1ccc2c(c1)C[C@]1(CCCN(C3CCC3)CC1)O2` (single isomer, unassigned) [Compound 53, 5′-(1H-Benzo[d]imidazol-1-yl)-1-cyclobutyl-3′H-spiro[azepane-4,2′-benzofuran]] was no more than 100 nM; that for `c1ccc2c(c1)ncn2-c1ccc2c(c1)CC1(CCCN(C3CCC3)CC1)O2` (centres unmarked) [Compound 50, 5′-(1H-Benzo[d]imidazol-1-yl)-1-cyclobutyl-3′H-spiro[azepane-4,2′-benzofuran]] was no more than 10 nM; that for `c1cn2cc(-c3ccc4c(c3)OC3(CCCN(C5CCC5)CC3)C4)ccc2n1` (centres unmarked) [Compound 69, 1-Cyclobutyl-6′-(imidazo[1,2-a]pyridin-6-yl)-3′H-spiro[azepane-4,2′-benzofuran]] was no more than 100 nM. Regarding `c1cnc(-c2ccc3c(c2)CC2(CCN(C4CCC4)CC2)O3)cn1` [Compound 29, 1′-Cyclobutyl-5-(pyrazin-2-yl)-3H-spiro[benzofuran-2,4′-piperidine]], the IC50 is no more than 10 nM.

For `c1cn2cc(-c3ccc4c(c3)CC3(CCCN5CCCCC5C3)O4)ccc2n1` (centres unmarked) [Compound 84, 5-(imidazo[1,2-a]pyridin-6-yl)-2′,3′,4′,6′,7′,8′,10′,10a′-octahydro-1′H,3H-spiro[benzofuran-2,9′-pyrido[1,2-a]azepine]], the IC50 is no more than 100 nM. The same measure for `c1cnc(-c2ccc3c(c2)OC2(CCN(C4CCC4)CC2)C3)cn1` [Compound 37, 1′-Cyclobutyl-6-(pyrazin-2-yl)-3H-spiro[benzofuran-2,4′-piperidine]]: no more than 100 nM. The same measure for `c1cc2c(cc1-c1cnc3[nH]ncc3c1)CC1(CCN(C3CCC3)CC1)O2` [Compound 64, 1′-Cyclobutyl-5-(1H-pyrazolo[3,4-b]pyridin-5-yl)-3H-spiro[benzofuran-2,4′-piperidine]]: no more than 10 nM; for `COc1ccnc(-c2ccc3c(c2)CC2(CCN(C4CCC4)CC2)O3)n1` [Compound 28, 1′-Cyclobutyl-5-(4-methoxypyrimidin-2-yl)-3H-spiro[benzofuran-2,4′-piperidine]]: no more than 100 nM; for `c1cn2cc(-c3ccc4c(c3)CC3(CCN5CCCCC5C3)O4)ccc2n1` (centres unmarked) [Compound 76, 5-(Imidazo[1,2-a]pyridin-6-yl)-1′,3′,4′,6′,7′,8′,9′,9a′-octahydro-3H-spiro[benzofuran-2,2′-quinolizine]]: no more than 10 nM.

(Values after patent US20120077802A1 (SUNOVION PHARMACEUTICALS INC., priority 2009, published 2012).)
